Consider one compound from PubChem BioAssay (NCI).

The structures appear in SMILES notation.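 Following 48 hours of exposure in 96-well plates, responses at five concentrations were used to interpolate endpoints linearly. TGI marks complete inhibition of growth.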

For this experiment, the system named is SN12K1 renal. In words: NCI tumour cell line growth inhibition, 48 h.

With `O=S(=O)(O)O`, the TGI is 1380 µM.
